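Cells were grown in 96-well plates and exposed to each compound for 48 hours at five concentrations; endpoints were interpolated linearly between bracketing concentrations, or set to the highest concentration if not reached. GI50 marks 50% less growth.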 Calls of active or inactive are those of the source. Rule as the data show it: active = GI50 up to about 1.1 µM and inactive = higher.

Test systems include 786-0; COLO 205; DU-145; EKVX; HL-60; HOP-92; HT-29; M14; NCI-H522; OVCAR-5; OVCAR-8; SK-MEL-28; SK-OV-3; SN12C; SNB-75; U-251; UACC-62; UO-31; NCI-H226; SF-539.
Holding throughout (experiment): NCI tumour cell line growth inhibition, 48 h

Take `C=C(Br)CN(C)CC(=C)Br`: the GI50 in the assay with 786-0, in the assay on COLO 205, with DU-145, with EKVX, in the assay with HL-60 and in the assay with HOP-92 was > 100 µM (inactive) in each case. The GI50 in the assay with HT-29, with M14, in the assay on NCI-H522, in the assay on OVCAR-5, in the assay on OVCAR-8 and with SK-MEL-28 was > 100 µM (inactive) each time. The GI50 with SK-OV-3, in the assay with SN12C, in the assay with SNB-75, in the assay on U-251, with UACC-62 and with UO-31 was > 100 µM (inactive) throughout.
Turning to `O=C1[C@@H]2[C@@H](CN3CN(c4ccccc4)N=C(c4ccccc4)[C@@]23c2ccccc2)C(=O)N1c1ccccc1`, the GI50 in the assay with 786-0 is 1.88 µM (inactive); in the assay with COLO 205, 1.91 µM (inactive); with DU-145 it was 7.14 µM (inactive); in the assay on EKVX, 4.89 µM (inactive); in the assay with HL-60, 2.25 µM (inactive); with HOP-92, 1.79 µM (inactive). Moreover, the GI50 with HT-29 was 2.36 µM (inactive); in the assay on M14, 2.94 µM (inactive); in the assay with NCI-H226 it was 0.977 µM (active); with NCI-H522, 0.547 µM (active); in the assay on OVCAR-5 it was 4.7 µM (inactive); with OVCAR-8, 5.85 µM (inactive). Further, the GI50 in the assay with SK-MEL-28 is 11.3 µM (inactive); in the assay with SK-OV-3, 14 µM (inactive); with SN12C, 6.58 µM (inactive); in the assay on SNB-75 it was 16 µM (inactive); with U-251, 8.99 µM (inactive); in the assay on UACC-62, 5.98 µM (inactive). The GI50 with UO-31 is 1.73 µM (inactive).
For `CN(C)c1ccc(/C=C/c2ccnc3ccc4ccccc4c23)cc1`, the GI50 in the assay with 786-0 was 39.5 µM (inactive); in the assay with COLO 205 it was 53.1 µM (inactive); in the assay on DU-145, 44.1 µM (inactive); with HL-60, > 100 µM (inactive); in the assay on HOP-92, 73.1 µM (inactive); with HT-29, 43.5 µM (inactive). Further, the GI50 with M14 is 81.3 µM (inactive); in the assay with NCI-H522, 17.3 µM (inactive); with OVCAR-8, 33.1 µM (inactive); with SF-539, 28.4 µM (inactive); with SK-MEL-28, 38.5 µM (inactive); with SK-OV-3, 27.9 µM (inactive). For the same compound, the GI50 with SN12C was 74.3 µM (inactive); with SNB-75, 26.5 µM (inactive); with U-251, 28.6 µM (inactive); in the assay with UACC-62 it was 53.1 µM (inactive); with UO-31, 45.6 µM (inactive).
As for `CC/C=C/C[C@H](O[Si](C)(C)C(C)(C)C)[C@H]1C[C@H]2O[C@H]([C@@H](O)C#C[Si](C)(C)C)C[C@H]2O1`, the GI50 with 786-0 was 14.7 µM (inactive); in the assay on COLO 205 it was 13.5 µM (inactive); in the assay on DU-145 it was 14.7 µM (inactive); in the assay on EKVX, 12.9 µM (inactive); in the assay on HL-60, 3.84 µM (inactive); with HOP-92, 10.4 µM (inactive). For the same compound, the GI50 is 11.9 µM (inactive) in the assay on HT-29; 12.1 µM (inactive) with M14; 6.68 µM (inactive) with NCI-H226; 3.64 µM (inactive) in the assay on NCI-H522; 14.1 µM (inactive) with OVCAR-5; 14.8 µM (inactive) in the assay on OVCAR-8. In addition, the GI50 in the assay on SK-MEL-28 was 14.2 µM (inactive); with SK-OV-3 it was 15.5 µM (inactive); with SN12C it was 5.36 µM (inactive); in the assay with SNB-75 it was 16.3 µM (inactive); in the assay with U-251, 15.5 µM (inactive); in the assay with UACC-62, 17.7 µM (inactive). In the assay on UO-31, the GI50 is 14.2 µM (inactive).
On to `CSCCC(NC(=O)OCc1ccccc1)NC(=O)OCc1ccccc1`, for which the GI50 in the assay with COLO 205 was > 100 µM (inactive); with DU-145, > 100 µM (inactive); in the assay on HL-60, > 10 µM (inactive); in the assay with HOP-92 it was > 100 µM (inactive); with HT-29, > 100 µM (inactive); with M14 it was > 100 µM (inactive). Further, the GI50 with NCI-H226, with NCI-H522, with OVCAR-5, with OVCAR-8, in the assay with SK-MEL-28 and with SK-OV-3 was > 100 µM (inactive) in each case. Also, the GI50 in the assay with SN12C, with SNB-75, in the assay on U-251 and in the assay on UO-31 was > 100 µM (inactive) each time.
With `O=C(/C=C/c1ccccc1)Oc1cccc(O)c1`, the GI50 in the assay with 786-0 is 77.8 µM (inactive); in the assay with COLO 205, 55 µM (inactive); in the assay on DU-145, 80.7 µM (inactive); with HL-60, 16.9 µM (inactive); with HOP-92, > 100 µM (inactive); in the assay with HT-29, 37.2 µM (inactive). Moreover, the GI50 in the assay with M14 is 43.1 µM (inactive); in the assay on NCI-H226, > 100 µM (inactive); in the assay with NCI-H522, 6.81 µM (inactive); in the assay with OVCAR-5 it was 30.3 µM (inactive); with OVCAR-8 it was 44.3 µM (inactive); in the assay on SF-539 it was > 100 µM (inactive). For the same compound, the GI50 is 23.6 µM (inactive) in the assay on SK-MEL-28; > 100 µM (inactive) with SK-OV-3; 44.1 µM (inactive) in the assay with SN12C; 65 µM (inactive) in the assay on SNB-75; 34.3 µM (inactive) in the assay with U-251; > 100 µM (inactive) in the assay on UACC-62. In the assay with UO-31, the GI50 is > 100 µM (inactive).
`COc1ccc(NC2Oc3cc4c(cc3C(c3cc(OC)c(O)c(OC)c3)C2C)OCO4)cc1` (centres undefined): the GI50 in the assay with 786-0 is 3.72 µM (inactive); in the assay with COLO 205, 8.87 µM (inactive); in the assay on DU-145, 7.4 µM (inactive); with HL-60 it was 1.79 µM (inactive); in the assay with HOP-92, 23.8 µM (inactive); with HT-29, 3.82 µM (inactive). Further, the GI50 in the assay with M14 is 5.36 µM (inactive); with NCI-H226, 38.3 µM (inactive); with NCI-H522, 3.33 µM (inactive); with OVCAR-5, 7.66 µM (inactive); in the assay on OVCAR-8 it was 4.45 µM (inactive); in the assay with SF-539, 4.2 µM (inactive). In addition, the GI50 in the assay with SK-MEL-28 was 3.73 µM (inactive); in the assay with SN12C it was 2.76 µM (inactive); with SNB-75, 2.11 µM (inactive); with U-251, 4.65 µM (inactive); in the assay with UACC-62, 2.74 µM (inactive); with UO-31 it was 5.97 µM (inactive).
`CC(C)[Si]1(C(C)C)OCC2OC(n3ccc(=O)[nH]c3=O)C(O)(CO)C2O[Si](C(C)C)(C(C)C)O1` (centres undefined): the GI50 with 786-0 was 15.3 µM (inactive); in the assay on COLO 205, 17.6 µM (inactive); in the assay with DU-145, 18.3 µM (inactive); with EKVX it was 14.2 µM (inactive); in the assay on HL-60 it was 14.4 µM (inactive); in the assay on HOP-92, 10.5 µM (inactive). Besides, the GI50 with HT-29 was 15 µM (inactive); in the assay on M14 it was 19.1 µM (inactive); in the assay with NCI-H226, 21.2 µM (inactive); with OVCAR-5 it was 15.9 µM (inactive); in the assay on OVCAR-8 it was 15.5 µM (inactive); with SF-539, 17.7 µM (inactive). Besides, the GI50 in the assay with SK-MEL-28 was 19.3 µM (inactive); in the assay with SK-OV-3, 16.4 µM (inactive); with SN12C, 15.8 µM (inactive); in the assay with U-251, 15.1 µM (inactive); in the assay with UACC-62 it was 15.8 µM (inactive); in the assay with UO-31, 10.2 µM (inactive).

For the origin of these results see ChEMBL document CHEMBL1201862, “PubChem BioAssay data set” (2004).
